Measurements published in patent US5091539A, “Azolyl cycloalkanol derivatives and agricultural fungicides” (Shionogi & Co., Ltd., priority 1984, dated 1992).

How the values were obtained:
Format in all cases: in vivo
Sphaerotheca fuliginea [1] = assay: Control test to powdery mildew of cucumber (foliar and soil treatment); settings: for Foliar Treatment, Curative Effect / Foliar Treatment, Protective Effect / Soil Treatment, Protective Effect / Powdery mildew, Foliar Treatment, Curative Effect / Powdery mildew, Foliar Treatment, Protective Effect / Powdery mildew, Soil Treatment, Protective Effect: index 0-10; for Protective Index, Soil Treatment / Protective Index, Foliar Treatment: 14 days
Description: (1) Seeds of cucumber (Cultivar: Matsukaze) were sown in a pot of 9 cm in diameter and the pots were kept in a green house until the plant was grown for 2-3 leaf stage. The first leaf was sprayed with, (i) 3 ml each of solutions containing the test compound at the prescribed concetrations and dried by the air (foliar treatment). Inoculation of spore suspension of Sphaerotheca fuliginea by spraying was practised 2 days before the treatment (curative effect) or 1 day after the treatment (protective effect). Alternatively, (ii) 5 ml of the solution was applied at the root of the seedlings (soil treatment). The pots were kept in a greenhouse for 2 days and inoculation was practised in the same manner noted above. (iii) After sprayed with 3 ml of a solution of the test compound at a concentration of 125 ppm and dried by the air, the treated pots were set in a greenhouse. Untreated pots were placed next to the treated pots. Those treated and untreated plants were inoculated with spore suspension. Protective effect of the test compounds by vapor was thus checked. The effect was examined 14 days after the inoculation of the spores.
0: Disease sign is observed on the whole leaf.
3: Disease sign is observed on the leaf in about 50%.
5: Disease sign is observed on the leaf in about 30%.
7: Disease sign is observed on the leaf in about 20%.
9: a little disease sign is observed.
(§1) (1) Test methods and evaluation are the same as those in Tests 2, 4 and 6.

Botrytis cinerea = assay: Control test of Botrytis rot (gray mold) of cucumber
Description: (1) Seedlings of cucumber (Cultivar: Matsukaze) were planted in a pot of 9 cm in diameter. The first leaf was sprayed with 3 ml each of solutions containing the test compound at the concentration of 125 or 31.3 ppm and the plant was dried by the air. After inoculation of the spores of Botrytis cinerea, the plants were kept at 20°±2° C. and 90-100% humidity ((i) protective spraying). Alternatively, the spores were inoculated at first and when the leaves suffered a little (about 2 days after), the solutions of the test compounds were sprayed ((ii) curative spraying). Evaluation was practised 3 days after the inoculation. Percent disease control was calculated by the ratio of diameter of diseased area in treated and untreated plants.
as §1

Sphaerotheca fuliginea [2] = assay: Control test to powdery mildew of cucumber by vapor (filter paper disks)
Description: (1) The first leaves of young cucumber (Cultivar: Matsukaze) planted in pot of 9 cm in diameter were inoculated with spore suspension of Sphaerotheca fuliginea. After the plants were kept in a greenhouse for 2 days, thin cover plates, 15 mm in diameter, were put on the first leaves. Filter paper disks soaked with 80 μl of test solution at a concentration of 31.3, 7.8, 2.0 or 0.5 ppm were put on the plates for 3 days. Disease degrees were observed 14 days after the inoculation.
It is evaluated as + when an inhibition zone was observed around the plate, as ± when the inhibition zone has nearly the same diameter (8 mm) as that of plate or as - when there is no inhibition zone.
as §1

Sclerotinia sclerotiorum = assay: Control test to Sclerotinia rot of cucumber
Text: (1) This test was practised in the same manner as in the above test, control test of Botrytis rot (gray mold) of cucumber, except for using the mycelium of Sclerotinia sclerotiorum as inoculm. The same as in test 2.

## O[C@@]1(c2ccc(Cl)c(Cl)c2)CCCC[C@H]1n1cncn1 (relative stereo) [Compound 33]
Sphaerotheca fuliginea [1]; second Table 4, 0.5 ppm
  Foliar Treatment, Curative Effect: 3 (Disease sign is observed on the leaf in about 50%.)
  Foliar Treatment, Protective Effect: 0
  Soil Treatment, Protective Effect: 0
Sphaerotheca fuliginea [1]; second Table 4, 2.0 ppm
  Foliar Treatment, Curative Effect: 10
  Foliar Treatment, Protective Effect: 5 (Disease sign is observed on the leaf in about 30%.)
  Soil Treatment, Protective Effect: 0
Sphaerotheca fuliginea [1]; second Table 4, 7.8 ppm
  Foliar Treatment, Curative Effect: 10
  Foliar Treatment, Protective Effect: 10
  Soil Treatment, Protective Effect: 0
Sphaerotheca fuliginea [1]; second Table 4, 31.3 ppm
  Foliar Treatment, Curative Effect: 10
  Foliar Treatment, Protective Effect: 10
  Soil Treatment, Protective Effect: 0

## CCCCc1c(C)nc(N(C)C)nc1O [Dimethirimol, reference compound]
Sphaerotheca fuliginea [1]; first Table 4, 500 ppm
  Protective Index, Soil Treatment: 5 (Disease sign is observed on the leaf in about 30%.)

## O[C@@]1(c2cccc(Cl)c2)CCCC[C@H]1n1cncn1 (relative stereo) [Compound 31]
Sphaerotheca fuliginea [1]; second Table 4, 0.5 ppm
  Foliar Treatment, Curative Effect: 3 (Disease sign is observed on the leaf in about 50%.)
  Foliar Treatment, Protective Effect: 0
Sphaerotheca fuliginea [1]; second Table 4, 2.0 ppm
  Foliar Treatment, Curative Effect: 9
  Foliar Treatment, Protective Effect: 0
Sphaerotheca fuliginea [1]; second Table 4, 7.8 ppm
  Foliar Treatment, Curative Effect: 10
  Foliar Treatment, Protective Effect: 9
Sphaerotheca fuliginea [1]; second Table 4, 31.3 ppm
  Foliar Treatment, Curative Effect: 10
  Foliar Treatment, Protective Effect: 10

## O[C@]1(c2ccc(F)cc2)CCCC[C@H]1n1cncn1 (relative stereo) [Trans-isomer of Compound 28, 1-(4-fluorophenyl)-2-(1,2,4-triazol-1-yl)cyclohexanol, reference compound]
Botrytis cinerea; Table 9, 7.8 ppm
  Gray Mold, Percent Disease Control, Curative Spraying: 0%
  Gray Mold, Percent Disease Control, Protective Spraying: 3%
Botrytis cinerea; Table 9, 31.3 ppm
  Gray Mold, Percent Disease Control, Curative Spraying: 0%
  Gray Mold, Percent Disease Control, Protective Spraying: 5%
Botrytis cinerea; Table 9, 125 ppm
  Gray Mold, Percent Disease Control, Curative Spraying: 9%
  Gray Mold, Percent Disease Control, Protective Spraying: 0%
Sphaerotheca fuliginea [1]; Table 9, 0.03 ppm
  Powdery mildew, Foliar Treatment, Curative Effect: 0
  Powdery mildew, Foliar Treatment, Protective Effect: 0
Sphaerotheca fuliginea [1]; Table 9, 0.12 ppm
  Powdery mildew, Foliar Treatment, Curative Effect: 0
  Powdery mildew, Foliar Treatment, Protective Effect: 0
Sphaerotheca fuliginea [1]; Table 9, 0.5 ppm
  Powdery mildew, Foliar Treatment, Curative Effect: 0
  Powdery mildew, Foliar Treatment, Protective Effect: 0
  Powdery mildew, Soil Treatment, Protective Effect: 0
Sphaerotheca fuliginea [1]; Table 9, 2.0 ppm
  Powdery mildew, Foliar Treatment, Curative Effect: 9
  Powdery mildew, Foliar Treatment, Protective Effect: 0
  Powdery mildew, Soil Treatment, Protective Effect: 0
Sphaerotheca fuliginea [1]; Table 9, 7.8 ppm
  Powdery mildew, Soil Treatment, Protective Effect: 0
Sphaerotheca fuliginea [1]; Table 9, 31.3 ppm
  Powdery mildew, Soil Treatment, Protective Effect: 9
Sphaerotheca fuliginea [2]; Table 9, 2.0 ppm
  Powdery mildew, Vapor Effect: -
Sphaerotheca fuliginea [2]; Table 9, 7.8 ppm
  Powdery mildew, Vapor Effect: -
Sphaerotheca fuliginea [2]; Table 9, 31.3 ppm
  Powdery mildew, Vapor Effect: -

## O[C@@]1(Cc2ccc(Cl)cc2)CCCCC[C@H]1n1cncn1 (relative stereo) [Compound 5, cis-1-(4-chlorobenzyl)-2-(1,2,4-triazol-1-yl)cycloheptanol]
Sphaerotheca fuliginea [1]; first Table 4, 125 ppm
  Protective Index, Foliar Treatment: 10
  Protective Index, Soil Treatment: 3 (Disease sign is observed on the leaf in about 50%.)

## O[C@@]1(Cc2ccc(Cl)cc2Cl)CCCC[C@H]1n1cncn1 (relative stereo) [Compound 3, cis-1-(2,4-dichlorobenzyl)-2-(1,2,4-triazol-1-yl)cyclohexanol]
Sphaerotheca fuliginea [1]; first Table 4, 125 ppm
  Protective Index, Foliar Treatment: 10
  Protective Index, Soil Treatment: 10

## Cc1ccc2nc3sc(=O)sc3nc2c1 [Chinomethionat, reference compound]
Sphaerotheca fuliginea [1]; first Table 4, 125 ppm
  Protective Index, Foliar Treatment: 10

## O[C@@]1(c2ccc(F)cc2)CCCC[C@H]1n1ccnc1 (relative stereo) [Compound 29]
Sphaerotheca fuliginea [1]; second Table 4, 0.5 ppm
  Foliar Treatment, Curative Effect: 0
  Foliar Treatment, Protective Effect: 0
Sphaerotheca fuliginea [1]; second Table 4, 2.0 ppm
  Foliar Treatment, Curative Effect: 3 (Disease sign is observed on the leaf in about 50%.)
  Foliar Treatment, Protective Effect: 3 (Disease sign is observed on the leaf in about 50%.)
Sphaerotheca fuliginea [1]; second Table 4, 7.8 ppm
  Foliar Treatment, Curative Effect: 9
  Foliar Treatment, Protective Effect: 9
Sphaerotheca fuliginea [1]; second Table 4, 31.3 ppm
  Foliar Treatment, Curative Effect: 10
  Foliar Treatment, Protective Effect: 10

## O[C@@]1(c2cccs2)CCCC[C@H]1n1ccnc1 (relative stereo) [Compound 6, cis-1-(2-thienyl)-2-imidazolylcyclohexanol]
Sphaerotheca fuliginea [1]; first Table 4, 125 ppm
  Protective Index, Foliar Treatment: 10
  Protective Index, Soil Treatment: 0

## O[C@@]1(c2ccc(F)cc2)CCCCC[C@H]1n1ccnc1 (relative stereo) [Compound 23]
Sphaerotheca fuliginea [1]; second Table 4, 0.5 ppm
  Foliar Treatment, Curative Effect: 0
  Foliar Treatment, Protective Effect: 0
Sphaerotheca fuliginea [1]; second Table 4, 2.0 ppm
  Foliar Treatment, Curative Effect: 3 (Disease sign is observed on the leaf in about 50%.)
  Foliar Treatment, Protective Effect: 5 (Disease sign is observed on the leaf in about 30%.)
Sphaerotheca fuliginea [1]; second Table 4, 7.8 ppm
  Foliar Treatment, Curative Effect: 10
  Foliar Treatment, Protective Effect: 10
Sphaerotheca fuliginea [1]; second Table 4, 31.3 ppm
  Foliar Treatment, Curative Effect: 10
  Foliar Treatment, Protective Effect: 10

## O[C@@]1(c2ccc(Cl)cc2)CCCC[C@H]1n1ccnc1 (relative stereo) [Compound 26]
Sphaerotheca fuliginea [1]; second Table 4, 0.5 ppm
  Foliar Treatment, Curative Effect: 0
  Foliar Treatment, Protective Effect: 0
Sphaerotheca fuliginea [1]; second Table 4, 2.0 ppm
  Foliar Treatment, Curative Effect: 7 (Disease sign is observed on the leaf in about 20%.)
  Foliar Treatment, Protective Effect: 3 (Disease sign is observed on the leaf in about 50%.)
Sphaerotheca fuliginea [1]; second Table 4, 7.8 ppm
  Foliar Treatment, Curative Effect: 9
  Foliar Treatment, Protective Effect: 9
Sphaerotheca fuliginea [1]; second Table 4, 31.3 ppm
  Foliar Treatment, Curative Effect: 10
  Foliar Treatment, Protective Effect: 10

## O[C@@]1(c2cc(Cl)ccc2Cl)CCCC[C@H]1n1cncn1 (relative stereo) [Compound 35]
Sphaerotheca fuliginea [1]; second Table 4, 0.5 ppm
  Foliar Treatment, Curative Effect: 10
  Foliar Treatment, Protective Effect: 5 (Disease sign is observed on the leaf in about 30%.)
  Soil Treatment, Protective Effect: 0
Sphaerotheca fuliginea [1]; second Table 4, 2.0 ppm
  Foliar Treatment, Curative Effect: 10
  Foliar Treatment, Protective Effect: 10
  Soil Treatment, Protective Effect: 0
Sphaerotheca fuliginea [1]; second Table 4, 7.8 ppm
  Foliar Treatment, Curative Effect: 10
  Foliar Treatment, Protective Effect: 10
  Soil Treatment, Protective Effect: 9
Sphaerotheca fuliginea [1]; second Table 4, 31.3 ppm
  Foliar Treatment, Curative Effect: 10
  Foliar Treatment, Protective Effect: 10
  Soil Treatment, Protective Effect: 10

## CC(C)NC(=O)N1CC(=O)N(c2cc(Cl)cc(Cl)c2)C1=O [Iprodione, reference compound]
Botrytis cinerea; Table 2, 31.3 ppm
  Percent Disease Control, Curative Spraying: 64%
  Percent Disease Control, Protective Spraying: 100%
Botrytis cinerea; Table 2, 125 ppm
  Percent Disease Control, Curative Spraying: 90%
  Percent Disease Control, Protective Spraying: 100%
Sclerotinia sclerotiorum; 31.3 ppm
  Percent Disease Control, Curative Spraying: 77%
  Percent Disease Control, Protective Spraying: 100%
Sclerotinia sclerotiorum; 125 ppm
  Percent Disease Control, Curative Spraying: 90%
  Percent Disease Control, Protective Spraying: 100%

## O[C@@]1(c2ccc(Cl)cc2)CCCCC[C@H]1n1ccnc1 (relative stereo) [Compound 27]
Sphaerotheca fuliginea [1]; second Table 4, 0.5 ppm
  Foliar Treatment, Curative Effect: 0
  Foliar Treatment, Protective Effect: 0
Sphaerotheca fuliginea [1]; second Table 4, 2.0 ppm
  Foliar Treatment, Curative Effect: 5 (Disease sign is observed on the leaf in about 30%.)
  Foliar Treatment, Protective Effect: 3 (Disease sign is observed on the leaf in about 50%.)
Sphaerotheca fuliginea [1]; second Table 4, 7.8 ppm
  Foliar Treatment, Curative Effect: 10
  Foliar Treatment, Protective Effect: 9
Sphaerotheca fuliginea [1]; second Table 4, 31.3 ppm
  Foliar Treatment, Curative Effect: 10
  Foliar Treatment, Protective Effect: 10

## O[C@@]1(c2ccc(Cl)c(Cl)c2)CCCCC[C@H]1n1cncn1 (relative stereo) [Compound 34]
Sphaerotheca fuliginea [1]; second Table 4, 0.5 ppm
  Foliar Treatment, Curative Effect: 5 (Disease sign is observed on the leaf in about 30%.)
  Foliar Treatment, Protective Effect: 0
  Soil Treatment, Protective Effect: 0
Sphaerotheca fuliginea [1]; second Table 4, 2.0 ppm
  Foliar Treatment, Curative Effect: 10
  Foliar Treatment, Protective Effect: 0
  Soil Treatment, Protective Effect: 0
Sphaerotheca fuliginea [1]; second Table 4, 7.8 ppm
  Foliar Treatment, Curative Effect: 10
  Foliar Treatment, Protective Effect: 9
  Soil Treatment, Protective Effect: 0
Sphaerotheca fuliginea [1]; second Table 4, 31.3 ppm
  Foliar Treatment, Curative Effect: 10
  Foliar Treatment, Protective Effect: 10
  Soil Treatment, Protective Effect: 0
